How the values were obtained:
Assay in all cases: Paper disk method, enhancing action for activities of azole antifungal agents
Type in all cases: cell-based
[1] = test system: Aspergillus niger ATCC 6275; details: 48 hours; for Inhibition activity (inhibition ring mm) A. niger ATCC 6275 GYF / Transparency of the inhibition ring A. niger ATCC 6275 GYF: fluconazole 10 μg/ml; for Inhibition activity (inhibition ring mm) A. niger ATCC 6275 GY / Transparency of the inhibition ring A. niger ATCC 6275 GY: GY medium (control, no azole); for Inhibition activity (inhibition ring mm) A. niger ATCC 6275 GYM / Transparency of the inhibition ring A. niger ATCC 6275 GYM: miconazole 0.1 μg/ml
Procedure: (§1) Test organisms used were Candida albicans ATCC 64548, fluconazole resistant Candida albicans ATCC 64550 and Aspergillus niger ATCC 6275. Candida spp. were cultured in Waksman broth (glucose 2.0%, peptone 0.5%, dry yeast 0.3%, meat extract 0.5%, NaCl 0.5% and CaCO3 0.3%, pH 7.0) at 27° C. for 40 hours, then 0.1% thereof was inoculated on GY agar medium (glucose 1.0%, yeast extract 0.5% and agar 0.8%, pH 6.0). Spore suspension 0.2% of Aspergillus niger ATCC 6275 was inoculated on GY agar medium.
(§2) Azole antifungal agents used were miconazole (Sigma Inc., the U.S.) and fluconazole (ICN Pharmaceuticals, Inc., the U.S.), and were added at concentrations without affecting growth on each test organisms follows.
Aspergillus niger ATCC 6275: miconazole 0.1 μg/ml or fluconazole 10 μg/ml.
(§3) In the above medium, a medium added with miconazole to GY medium (control) is designated as GYM, and a medium added with fluconazole is designated as GYF. Activities were assessed by means of paper disk method (thickness: 8 mm, ADVANTEC MFS INC., Japan). Diameter of inhibition ring is expressed with mm unit after culturing Candida spp. for 24 hours and Aspergillus niger ATCC 6275 for 48 hours. Transparency of the inhibition ring is assessed with 5 degrees of A, B, C, D and E (transparence<A<B<C<D<E<opaque).

[2] = test system: Candida albicans ATCC 64548; details: 24 hours; for Inhibition activity (inhibition ring mm) C. albicans ATCC 64548 GYM / Transparency of the inhibition ring C. albicans ATCC 64548 GYM: miconazole 0.03 μg/ml; for Inhibition activity (inhibition ring mm) C. albicans ATCC 64548 GYF / Transparency of the inhibition ring C. albicans ATCC 64548 GYF: fluconazole 0.5 μg/ml
Procedure: as §1, §2
Candida albicans ATCC 64548: miconazole 0.03 μg/ml or fluconazole 0.5 μg/ml.
as §3

[3] = test system: fluconazole resistant Candida albicans ATCC 64550; details: 24 hours; for Inhibition activity (inhibition ring mm) C. albicans ATCC 64550 GYF / Transparency of the inhibition ring C. albicans ATCC 64550 GYF: fluconazole 30 μg/ml; for Inhibition activity (inhibition ring mm) C. albicans ATCC 64550 GYM / Transparency of the inhibition ring C. albicans ATCC 64550 GYM: miconazole 0.15 μg/ml
Procedure: as §1, §2
Candida albicans ATCC 64550: miconazole 0.15 μg/ml or fluconazole 30 μg/ml.
as §3

Row | Structure (SMILES) | Inhibition activity (inhibition ring mm) A. niger ATCC 6275 GYF ([1]; 10 μg/8 mm disk) | Transparency of the inhibition ring A. niger ATCC 6275 GYF ([1]; 10 μg/8 mm disk) | Inhibition activity (inhibition ring mm) A. niger ATCC 6275 GY ([1]; 50 μg/8 mm disk) | Transparency of the inhibition ring A. niger ATCC 6275 GY ([1]; 50 μg/8 mm disk) | Inhibition activity (inhibition ring mm) A. niger ATCC 6275 GYF ([1]; 50 μg/8 mm disk) | Transparency of the inhibition ring A. niger ATCC 6275 GYF ([1]; 50 μg/8 mm disk) | Inhibition activity (inhibition ring mm) A. niger ATCC 6275 GYM ([1]; 50 μg/8 mm disk) | Transparency of the inhibition ring A. niger ATCC 6275 GYM ([1]; 50 μg/8 mm disk) | Inhibition activity (inhibition ring mm) C. albicans ATCC 64548 GYM ([2]; 10 μg/8 mm disk) | Transparency of the inhibition ring C. albicans ATCC 64548 GYM ([2]; 10 μg/8 mm disk) | Inhibition activity (inhibition ring mm) C. albicans ATCC 64548 GYM ([2]; 50 μg/8 mm disk) | Transparency of the inhibition ring C. albicans ATCC 64548 GYM ([2]; 50 μg/8 mm disk) | Inhibition activity (inhibition ring mm) C. albicans ATCC 64550 GYF ([3]; 50 μg/8 mm disk) | Transparency of the inhibition ring C. albicans ATCC 64550 GYF ([3]; 50 μg/8 mm disk) | Inhibition activity (inhibition ring mm) C. albicans ATCC 64550 GYM ([3]; 50 μg/8 mm disk) | Transparency of the inhibition ring C. albicans ATCC 64550 GYM ([3]; 50 μg/8 mm disk) | other results
1 | CCC(OC(=O)c1ccccc1)C(C)(O)C1OC(=O)C(C)C(OC2CC(C)(OC)C(OC(=O)c3ccccc3)C(C)O2)C(C)C(OC2OC(C)CC(N(C)C)C2OC(=O)c2ccccc2)C2(C)CC(C)=C(O2)C1C (stereo not drawn) [Compound 770, 2′,4″,13-Tri-O-benzoyl-8,9-Anhydro-pseudoerythromycin A 6,9-hemiketal] | 11 mm | E (Growth of test organism was inhibited 35% or less.) | 11 mm | E (Growth of test organism was inhibited 35% or less.) | 18 mm | E (Growth of test organism was inhibited 35% or less.) | 12 mm | E (Growth of test organism was inhibited 35% or less.) | 11 mm | D (Growth of test organism was inhibited 35% or more and 55% or less.) | 14 mm | C (Growth of test organism was inhibited 55% or more and 75% or less.) | 13 mm | C (Growth of test organism was inhibited 55% or more and 75% or less.) | 13 mm | A (Growth of test organism was inhibited 95% or more.) | Inhibition activity (inhibition ring mm) C. albicans ATCC 64548 GYF ([2]; 100 μg/8 mm disk): 11 mm; Transparency of the inhibition ring C. albicans ATCC 64548 GYF ([2]; 100 μg/8 mm disk): D (Growth of test organism was inhibited 35% or more and 55% or less.)
2 | CCC(=O)OC1C(C)OC(OC2C(C)C(=O)OC(C(C)(O)C(CC)OC(=O)CC)C(C)C3=C(C)CC(C)(O3)C(OC3OC(C)CC(N(C)C)C3OC(C)=O)C2C)CC1(C)OC (stereo not drawn) [Compound 771, 2′-O-acetyl-4″,13-Di-O-propionyl-8,9-Anhydro-pseudoerythromycin A 6,9-hemiketal] | 14 mm | E (Growth of test organism was inhibited 35% or less.) | – | – | 15 mm | E (Growth of test organism was inhibited 35% or less.) | 23 mm | E (Growth of test organism was inhibited 35% or less.) | – | – | 12 mm | D (Growth of test organism was inhibited 35% or more and 55% or less.) | 10 mm | E (Growth of test organism was inhibited 35% or less.) | 10 mm | A (Growth of test organism was inhibited 95% or more.) | –
3 | CCCCCC(=O)OC1C(C)OC(OC2C(C)C(=O)OC(C(C)(O)C(CC)OC(=O)CCCCC)C(C)C3=C(C)CC(C)(O3)C(OC3OC(C)CC(N(C)C)C3OC(C)=O)C2C)CC1(C)OC (stereo not drawn) [Compound 772, 2′-O-acetyl-4″,13-Di-O-hexanoyl-8,9-Anhydro-pseudoerythromycin A 6,9-hemiketal] | 10 mm | D (Growth of test organism was inhibited 35% or more and 55% or less.) | 12 mm | E (Growth of test organism was inhibited 35% or less.) | 10 mm | D (Growth of test organism was inhibited 35% or more and 55% or less.) | 13 mm | A (Growth of test organism was inhibited 95% or more.) | 14 mm | B (Growth of test organism was inhibited 75% of more and 95% or less.) | 12 mm | B (Growth of test organism was inhibited 75% of more and 95% or less.) | 14 mm | B (Growth of test organism was inhibited 75% of more and 95% or less.) | 12 mm | A (Growth of test organism was inhibited 95% or more.) | Inhibition activity (inhibition ring mm) A. niger ATCC 6275 GYM ([1]; 10 μg/8 mm disk): 12 mm; Transparency of the inhibition ring A. niger ATCC 6275 GYM ([1]; 10 μg/8 mm disk): E (Growth of test organism was inhibited 35% or less.); Inhibition activity (inhibition ring mm) C. albicans ATCC 64548 GYF ([2]; 10 μg/8 mm disk): 9 mm; Transparency of the inhibition ring C. albicans ATCC 64548 GYF ([2]; 10 μg/8 mm disk): D (Growth of test organism was inhibited 35% or more and 55% or less.); Inhibition activity (inhibition ring mm) C. albicans ATCC 64548 GYF ([2]; 50 μg/8 mm disk): 10 mm; Transparency of the inhibition ring C. albicans ATCC 64548 GYF ([2]; 50 μg/8 mm disk): D (Growth of test organism was inhibited 35% or more and 55% or less.); Inhibition activity (inhibition ring mm) C. albicans ATCC 64550 GYF ([3]; 10 μg/8 mm disk): 11 mm; Transparency of the inhibition ring C. albicans ATCC 64550 GYF ([3]; 10 μg/8 mm disk): E (Growth of test organism was inhibited 35% or less.)

From US20050176655A1, “Novel macrolide derivatives havaing effect of potentiating antifungal activity” (priority 2002, published 2005)
